Residues, ends and D or L forms follow the SMILES beside them. No end group written: not given here. *: point of attachment. Biotin = O=C1N[C@H]2[C@H](CS[C@H]2CCCCC(=O)*)N1
Assays:
INADL d3 [1] = target: T1, INADL d3 (Homo sapiens, UniProt Q8NI35); test: G3 assay, binding of biotinylated peptide to GST-PDZ fusion; settings: G3 titration
T1 construct: made in house; host or cells: E. coli (DH5α, BL21 or JM109)
T1 sequence (Q8NI35 with tags, fused parts or gaps): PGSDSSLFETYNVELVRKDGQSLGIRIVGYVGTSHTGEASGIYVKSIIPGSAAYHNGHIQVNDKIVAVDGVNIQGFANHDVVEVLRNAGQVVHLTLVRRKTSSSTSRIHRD
Method: (§1) The G3 assay is identical to the G0 assay with the following exceptions. The peptides are typically present at 0.1 μM rather than 20 μM. The peptides are also pre-incubated with the HRP-streptavidin prior to adding to the assay plate. In the G0 assay, free peptide is incubated with the PDZ proteins prior to the addition of the HRP-streptavidin. Thus, for the G0 assay one can lose signal if the bound peptide dissociates from the PDZ protein prior to the addition of the HRP-streptavidin. In the G3 modified assay the HRP-streptavidin/peptide complex is added to the plate in one step, thus increasing the likelihood that all the bound peptide will be bound to HRP-streptavidin. The G3 modified assay increases the chance of observing weak interaactions.
(§2) Reagents and Supplies • Nunc MaxiSorp 96 well Immuno-plate, Nunc • PBS pH 7.4 (phosphate buffered saline, 8 g NaCl, 0.29 g KCl, 1.44 g Na2HPO4, 0.24 g KH2PO4, add H2O to 1 liter and pH 7.4; 0.2 μm filter) • Assay Buffer: 2% BSA in PBS (20 g of bovine serum albumin per liter PBS, fraction V, ICN Biomedicals, cat#IC15142983 • Goat anti-GST polyclonal Ab, stock 5 mg/ml, stored at 4° C., Amersham Pharmacia cat#27-4577-01 • Dilute 1:1000 in PBS, final concentration 5 μg/ml. • HRP-Streptavidin, 2.5 mg/2 ml stock stored at 4° C., Zymed cat#43-4323, dilute 1:2000 into Assay buffer, final concentration of 0.5 μg/ml • Wash Buffer, PBS • Biotinylated peptides (HPLC purified, stock solution stored in −20° C. freezer) • GST-PRISM proteins (stock stored at −80° C., after 1st thaw store in −10° C. freezer) • TMB (3,3′,5,5′, teramethylbensidine), tablets, Sigma cat.#T5525 • Per plate, dissolve 1 tablet in 1 ml DMSO, add 9 ml Citrate/Phosphate buffer pH 5.4 and 2 μL H2O2 • 0.18M H2SO4, Sigma cat.#S 1526 • 12-w multichannel pipettor & tips • 50 ml reagent reservoirs, Costar#4870 • 50, 15 ml polypropylene conical tubes • Costar Transtar 96 Costar #7605 • Transtar 96 Cartridge Costar #7610 • Molecular Devices microplate reader (450 & 650 nm filters) with SoftMax Pro software • When using reagents stored at or 4° C. or −20° C., remove & keep on ice
(§3) Protocol • 1. Coat plate with 100 μl of 5 μg/ml anti-GST, overnight at 4° C. • 2. Dump contents of plate & out tap dry on paper towels • 3. Block with 200 μl Assay Buffer for 2 hrs at room temperature • 4. Prepare proteins at 5 μg/ml in Assay Buffer • 5. Wash 3× with cold PBS (4° C.), avoiding letting the plates dry out • 6. Add proteins at 50 μl per well, incubate 1 to 2 hrs at 4° C. • 7. Prepare peptides to desired concentration in Assay Buffer • 8. Wash 3× with cold PBS (4° C.), avoiding letting the plates dry out • 9. Add HRP-Streptavidin/peptide complex [prepared by incubating for 20 minutes at room temperature HRP-Streptavidin (1:2000) with the desired biotin-peptide concentration for 20 minutes at room temperature] at 50 μl per well on ice • 10. Place at room temperature for exactly 30 minutes • 11. Promptly wash 5× with PBS at room temperature • 12. Add 100 μl/well TMB substrate (write time on plate) • 13. Incubate in dark at room temperature for a maximum of 30 minutes • 14. Read plate at 25 minutes (650 nm), optional • 15. Stop reaction with 100 μl of 0.18 M H2SO4, 30 minutes after adding TMB Take last reading at 450 nm soon after stopping reaction
(§4) The G3 assay was performed using 0.1 μM peptide representing 11 amino acids of Tat fused to the final 9 amino acids of TRPM7 ([…]; SEQ ID NO:258).
(§5) The G3 assay was performed on a subset of the PDZ domains as in Example II except that the concentration of peptide was 0.002 μM, […], 0.1 μM, 0.2 μM, 1 μM, and 2 μM.
(§6) to calculate the EC50 for the binding of the peptides to the PDZ domains.
(§7) FIGS. 10A and 10B show graphs of the titrations for the Peptide #1829 with ZO-1 d2 and for the Peptide #1839 with INADL d3.

ZO-1 d2 [2] = target: T2, ZO-1 d2 (Homo sapiens, UniProt Q07157, DEL264-264); test: as above; settings: G3 titration
T2 construct: made in house; host or cells: E. coli (DH5α, BL21 or JM109)
T2 sequence (Q07157 with tags, fused parts or gaps DEL264-264): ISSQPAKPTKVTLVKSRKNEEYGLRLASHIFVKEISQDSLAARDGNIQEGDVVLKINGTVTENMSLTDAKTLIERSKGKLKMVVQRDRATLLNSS
Method: as §1, §2, §3, §4, §5, §6, §7

RIM2 d1 = target: T3, RIM2 d1 (Homo sapiens, UniProt Q9UQ26); test: G assays, titrations or binding assays of peptides; settings: peptide demonstrated to bind RIM2 d1 in G assays
T3 construct: made in house; host or cells: E. coli (DH5α, BL21 or JM109)
T3 sequence (Q9UQ26 632-757): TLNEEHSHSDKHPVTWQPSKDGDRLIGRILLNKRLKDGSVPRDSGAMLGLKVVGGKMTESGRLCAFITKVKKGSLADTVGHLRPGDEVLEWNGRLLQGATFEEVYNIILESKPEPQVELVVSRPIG
Method: (§8) In one aspect, the invention provides an assay in which a GST/PDZ fusion protein is immobilized on a surface (G assay). […] In a preferred embodiment, the assay is carried out as follows:
(§9) (1) A PDZ-domain polypeptide is bound to a surface, e.g. a protein binding surface. In a preferred embodiment, a GST/PDZ fusion protein containing one or more PDZ domains is bound to a polystyrene 96-well plate. […] In one embodiment, the GST/PDZ fusion protein is bound via an anti-GST antibody that is coated onto the 96-well plate. Adequate binding to the plate can be achieved when: • a. 100 μl per well of 5 μg/ml goat anti-GST polyclonal antibody (Pierce) in PBS is added to a polystyrene 96-well plate (e.g., Nunc Polysorp) at 4° C. for 12 hours. • b. The plate is blocked by addition of 200 μl per well of PBS/BSA for 2 hours at 4° C. • c. The plate is washed 3 times with PBS. • d. 50 μl per well of 5 μg/ml GST/PDZ fusion protein) or, as a negative control, GST polypeptide alone (i.e. not a fusion protein) in PBS/BSA is added to the plate for 2 hours at 4° C. • e. the plate is again washed 3 times with PBS.
(§10) (2) Biotinylated PL peptides are allowed to react with the surface by addition of 50 μl per well of 20 μM solution of the biotinylated peptide in PBS/BSA for 10 minutes at 4° C., followed by an additional 20 minute incubation at 25° C. The plate is washed 3 times with ice cold PBS.
(§11) (3) The binding of the biotinylated peptide to the GST/PDZ fusion protein surface can be detected using a variety of methods and detectors known to one of skill in the art. In one embodiment, 100 μl per well of 0.5 μg/ml streptavidin-horseradish peroxidase (HRP) conjugate dissolved in BSA/PBS is added and allowed to react for 20 minutes at 4° C. The plate is then washed 5 times with 50 mM Tris pH 8.0 containing 0.2% Tween 20, and developed by addition of 100 μl per well of HRP-substrate solution (TMB, Dako) for 20 minutes at room temperature (RT). The reaction of the HRP and its substrate is terminated by addition of 100 μl per well of 1 M sulfuric acid, and the optical density (O.D.) of each well of the plate is read at 450 um.
(§12) (4) Specific binding of a PL peptide and a PDZ domain polypeptide is determined by comparing the signal from the well(s) in which the PL peptide and PDZ domain polypeptide are combined, with the background signal(s). […] Typically a specific or selective reaction will be at least twice background signal, more typically more than 5 times background, and most typically 10 or more times the background signal. […] Correspondingly, a statistical test (e.g. a T-test) comparing repeated measurements of the signal with repeated measurements of the background will result in a p-value <0.05, more typically a p-value <0.01, and most typically a p-value <0.001 or less. As noted, in an embodiment of the G assay, the signal from binding of a given PL peptide to immobilized (surface bound) GST polypeptide alone is one suitable negative control (sometimes referred to as B1). Because all measurement are done in multiples (i.e. at least duplicate) the arithmetic mean (or, equivalently, average.) of several measurements is used in determining the binding, and the standard error of the mean is used in determining the probable error in the measurement of the binding. The standard error of the mean of N measurements equals the square root of the following: the sum of the squares of the difference between each measurement and the mean, divided by the product of (N) and (N−1). Thus, in one embodiment, specific binding of the PDZ protein to the platebound peptide is determined by comparing the mean signal (“mean S”) and standard error of the signal (“SE”) for a particular PL-PDZ combination with the mean B1.

ZO-1 d2 [3] = target: T2, ZO-1 d2; test: G assays, titrations or binding assays of peptides; settings: peptide demonstrated to bind ZO-1 d2 in G assays
Method: as §8, §9, §10, §11, §12

[4] = test system: cultured cortical neurons; test: Oxygen glucose deprivation (OGD) neuronal cell death; assay type: cell-based; settings: FIG. 7
Method: The fraction of dead cells was determining by dividing the number of neurons expressing GFP which became stained with propidium iodide 20 h after OGD by the number of neurons expressing GFP at the beginning of the experiment. Data for each culture was obtained from counting cells in 3 high power microscope fields per experiment.

INADL d3 [5] = target: T1, INADL d3; test: G assays, titrations or binding assays of peptides; settings: peptide demonstrated to bind INADL d3 in G assays
Method: as §8, §9, §10, §11, §12

Compound	ODmax (450 nm) (INADL d3 [1])	ODmax (450 nm) (ZO-1 d2 [2])	POZ domain bound (RIM2 d1)	POZ domain bound (ZO-1 d2 [3])	Survival of neurons in prolonged OGD [4]	POZ domain bound (INADL d3 [5])
CC(C)[C@H](NC(=O)[C@H](Cc1ccc(O)cc1)NC(=O)[C@H](Cc1ccc(O)cc1)NC(=O)[C@H](CCC(=O)O)NC(=O)[C@H](CCCCN)NC(=O)[C@H](CC(=O)O)NC(=O)[C@H](CCCCN)NC(=O)[C@H](CC(N)=O)NC(=O)[C@H](CCCCN)NC(=O)[C@H](CCCNC(=N)N)NC(=O)[C@H](CCCNC(=N)N)NC(=O)[C@H](CCCNC(=N)N)NC(=O)[C@H](CCC(N)=O)NC(=O)[C@H](CCCNC(=N)N)NC(=O)[C@H](CCCNC(=N)N)NC(=O)[C@H](CCCCN)NC(=O)[C@H](CCCCN)NC(=O)[C@H](CCCNC(=N)N)NC(=O)CNC(=O)[C@H](Cc1ccc(O)cc1)NC(=O)CCCC[C@@H]1SC[C@@H]2NC(=O)N[C@@H]21)C(=O)O [Peptide 1852] (Biotin-YGRKKRRQRRRKNKDKEYYV-OH; C-terminus assumed)	2.40	2.60	RIM2 D1	ZO-1 D2		
[Gd+3] [Gd^3+]					can permit survival of neurons destined to die from prolonged OGD	
CC[C@H](C)[C@H](NC(=O)[C@H](CCC(N)=O)NC(=O)[C@H](Cc1ccc(O)cc1)NC(=O)[C@H](CCCCN)NC(=O)[C@H](CCCNC(=N)N)NC(=O)[C@H](CC(=O)O)NC(=O)[C@@H](NC(=O)[C@H](CCCNC(=N)N)NC(=O)[C@H](CO)NC(=O)[C@H](CCCNC(=N)N)NC(=O)[C@H](CCCNC(=N)N)NC(=O)[C@H](CCCNC(=N)N)NC(=O)[C@H](CCC(N)=O)NC(=O)[C@H](CCCNC(=N)N)NC(=O)[C@H](CCCNC(=N)N)NC(=O)[C@H](CCCCN)NC(=O)[C@H](CCCCN)NC(=O)[C@H](CCCNC(=N)N)NC(=O)CNC(=O)[C@H](Cc1ccc(O)cc1)NC(=O)CCCC[C@@H]1SC[C@@H]2NC(=O)N[C@@H]21)[C@@H](C)O)C(=O)O [Peptide 1839] (Biotin-YGRKKRRQRRRSRTDRKYQI-OH; C-terminus assumed)	1.60	2.50	RIM2 D1			INADL D3
C[C@H](NC(=O)[C@H](Cc1c[nH]c2ccccc12)NC(=O)[C@H](Cc1ccc(O)cc1)NC(=O)[C@H](CCCCN)NC(=O)[C@H](CCCNC(=N)N)NC(=O)[C@H](CC(=O)O)NC(=O)[C@@H](NC(=O)[C@H](CCCNC(=N)N)NC(=O)[C@H](CO)NC(=O)[C@H](CCCNC(=N)N)NC(=O)[C@H](CCCNC(=N)N)NC(=O)[C@H](CCCNC(=N)N)NC(=O)[C@H](CCC(N)=O)NC(=O)[C@H](CCCNC(=N)N)NC(=O)[C@H](CCCNC(=N)N)NC(=O)[C@H](CCCCN)NC(=O)[C@H](CCCCN)NC(=O)[C@H](CCCNC(=N)N)NC(=O)CNC(=O)[C@H](Cc1ccc(O)cc1)NC(=O)CCCC[C@@H]1SC[C@@H]2NC(=O)N[C@@H]21)[C@@H](C)O)C(=O)O [Peptide 1832] (Biotin-YGRKKRRQRRRSRTDRKYWA-OH; C-terminus assumed)	0.60	2.10	RIM2 D1	ZO-1 D2		INADL D3
Biotin-YGRKKRRQRRRSRTDRLEYV [Peptide 1846]	1.50		RIM2 D1			
CC(C)C[C@H](NC(=O)[C@H](CO)NC(=O)[C@@H](NC(=O)[C@H](CC(C)C)NC(=O)[C@H](CCCNC(=N)N)NC(=O)[C@H](CC(=O)O)NC(=O)CNC(=O)[C@H](CCCNC(=N)N)NC(=O)[C@H](C)NC(=O)[C@H](CCCNC(=N)N)NC(=O)[C@H](CCCNC(=N)N)NC(=O)[C@H](CCCNC(=N)N)NC(=O)[C@H](CCC(N)=O)NC(=O)[C@H](CCCNC(=N)N)NC(=O)[C@H](CCCNC(=N)N)NC(=O)[C@H](CCCCN)NC(=O)[C@H](CCCCN)NC(=O)[C@H](CCCNC(=N)N)NC(=O)CNC(=O)[C@H](Cc1ccc(O)cc1)NC(=O)CCCC[C@@H]1SC[C@@H]2NC(=O)N[C@@H]21)C(C)C)C(=O)O [Peptide 1843] (Biotin-YGRKKRRQRRRARGDRLVSL-OH; C-terminus assumed)	1.20	2.20	RIM2 D1	ZO-1 D2		
CC[C@H](C)[C@H](NC(=O)[C@H](CC(C)C)NC(=O)[C@H](CCCNC(=N)N)NC(=O)[C@H](CCCNC(=N)N)NC(=O)[C@H](CCC(=O)O)NC(=O)[C@H](CC(=O)O)NC(=O)[C@H](CCC(N)=O)NC(=O)[C@H](CCCNC(=N)N)NC(=O)[C@H](CCCNC(=N)N)NC(=O)[C@H](CCCNC(=N)N)NC(=O)[C@H](CCC(N)=O)NC(=O)[C@H](CCCNC(=N)N)NC(=O)[C@H](CCCNC(=N)N)NC(=O)[C@H](CCCCN)NC(=O)[C@H](CCCCN)NC(=O)[C@H](CCCNC(=N)N)NC(=O)CNC(=O)[C@H](Cc1ccc(O)cc1)NC(=O)CCCC[C@@H]1SC[C@@H]2NC(=O)N[C@@H]21)C(=O)N[C@H](C(=O)N[C@@H](CC(C)C)C(=O)O)C(C)C [Peptide 1842] (Biotin-YGRKKRRQRRRQDERRLIVL-OH)	1.90	2.30	RIM2 D1	ZO-1 D2		
CC[C@H](C)[C@H](NC(=O)[C@@H](NC(=O)[C@H](CCCNC(=N)N)NC(=O)[C@H](CC(=O)O)NC(=O)[C@H](CO)NC(=O)[C@H](CCCNC(=N)N)NC(=O)[C@H](C)NC(=O)[C@H](CCCNC(=N)N)NC(=O)[C@H](CCCNC(=N)N)NC(=O)[C@H](CCCNC(=N)N)NC(=O)[C@H](CCC(N)=O)NC(=O)[C@H](CCCNC(=N)N)NC(=O)[C@H](CCCNC(=N)N)NC(=O)[C@H](CCCCN)NC(=O)[C@H](CCCCN)NC(=O)[C@H](CCCNC(=N)N)NC(=O)CNC(=O)[C@H](Cc1ccc(O)cc1)NC(=O)CCCC[C@@H]1SC[C@@H]2NC(=O)N[C@@H]21)[C@@H](C)O)C(=O)N[C@@H](Cc1c[nH]c2ccccc12)C(=O)N[C@@H](C)C(=O)O [Peptide 1829] (Biotin-YGRKKRRQRRRARSDRTIWA-OH; C-terminus assumed)	1.40	2.90	RIM2 D1	ZO-1 D2		INADL D3

From patent US7858322B2, “Method of determining inhibition of binding to TRPM7 protein” (NoNo, Inc., priority 2003, dated 2010)
